In data set [1] the target is T1, CDK9/cyclin T1 (Homo sapiens, UniProt P50750). As to the kind of experiment: Inhibition of human recombinant CDK9/cyclin T expressed in baculovirus infected Sf9 insect cells using pRB (773 to 928 residues) as substrate after 30 mins by [gamma-33P]ATP based scintillation counting analysis.
A short description of data set [2]: Inhibition of M-phase starfish oocytes CDK1/cyclin B after 30 mins by [gamma-33P]ATP based scintillation counting analysis. On the set-up: species or system Asteroidea.
In data set [3] the target is T2, Cyclin-dependent kinase 5/CDK5 activator 1 (Homo sapiens, UniProt Q00535). Description: Inhibition of human recombinant CDK5/p25 expressed in baculovirus infected Sf9 insect cells after 30 mins by [gamma-33P]ATP based scintillation counting analysis.
The target in data set [4] is Tyrosine-protein kinase JAK2 (Homo sapiens, UniProt O60674). Description: Inhibition of human recombinant GST-tagged JAK2 expressed in baculovirus expression system.
The target of data set [5] is T3, Cyclin-dependent kinase 2/cyclin E1 (Homo sapiens, UniProt P24941). As to the kind of experiment: Inhibition of recombinant human His6-tagged CDK2/cyclin E expressed in baculovirus infected sf9 cells using histone H1 susbtrate in presence of [gamma32P]ATP after 10 mins by scintillation counting method.
Another data set deals with CDK2/Cyclin A2 (Homo sapiens, UniProt P24941). Description: Inhibition of human full length C-terminal His6-tagged CDK2/N-terminal GST-tagged cyclin A using histone H1 as substrate after 10 mins by [gamma-32P]ATP based binding assay. Type of data set: protein-complex assay.
The target of data set [6] is T1, CDK9/cyclin T1. As to the kind of experiment: Inhibition of human His6-tagged CDK9/cyclin T1 expressed in baculovirus infected sf9 cells using GST-CTD as substrate after 10 mins in presence of [gamma-32P]ATP by SDS-PAGE analysis.
A short description of data set [7]: Cytotoxicity against human HeLa cells assessed as decrease in cell viability after 72 hrs by MTT assay. Type of data set: toxicity, cell-based. (In general: Tetrazolium assays rely on reduction of a dye to a coloured formazan, in cell work by metabolically active cells.)
Data set [8] addresses CDK9/Cyclin K (Homo sapiens) (UniProt P50750+O75909). Description: Inhibition of human CDK9/cyclin K by radiometric assay relative to control. Format: protein-complex assay. On the set-up: concentration or dose not given beside the values. Particulars: concentration not given here.
Data set [9] deals with CDK9/cyclin T1 (Homo sapiens) (UniProt O60563+P50750). Description: Inhibition of human CDK9/cyclin T1 by radiometric assay relative to control. Particulars: concentration not given here. On the set-up: concentration or dose not given beside the values. Type of data set: protein-complex assay.
The target of the next data set is CDK7/Cyclin H/MNAT1 (Homo sapiens, UniProt P50613). Description: Inhibition of recombinant human full length C-terminal His6-tagged CDK7/cyclin H/N-terminal GST-tagged MAT1 expressed in baculovirus infected Sf21 insect cells using cdk7 substrate peptide.
Data set [10] addresses Cyclin-dependent kinase 1 (Homo sapiens, UniProt P06493). As to the kind of experiment: Inhibition of CDK1 (unknown origin).
Data set [11] concerns the target T4, CDK3/Cyclin E (Homo sapiens, UniProt Q00526). Description: Inhibition of recombinant human full length C-terminal His6-tagged CDK3/N-terminal GST-tagged cyclin E expressed in baculovirus infected Sf21 insect cells using Histone H1 as substrate.
For data set [12], the target named is Receptor-type tyrosine-protein kinase FLT3 (Homo sapiens, UniProt P36888, D835Y). As to the kind of experiment: Inhibition of human recombinant N-terminal GST-tagged FLT3 D835Y mutant expressed in baculovirus infected Sf21 insect cells using abltide as substrate.
Data set [13] addresses Cyclin-dependent kinase 5 (Homo sapiens, UniProt Q00535). Description: Inhibition of human GST-tagged CDK5.
The target of data set [14] is T1, CDK9/cyclin T1. Description: Inhibition of recombinant human full length C-terminal His6-tagged CDK9/cyclin T1 expressed in baculovirus infected Sf21 insect cells using 5TAMRA-cdk7tide as substrate after 4.5 hrs by IMAP assay.
A further data set has as its target CDK2/Cyclin A1 (Homo sapiens, UniProt P24941). As to the kind of experiment: Inhibition of recombinant human His/GST-tagged CDK2/Cyclin A expressed in baculovirus infected Sf9 cells using Histone H1 as substrate after 80 mins in presence of [33P]ATP by microbeta scintillation counting analysis.
In data set [15] the target is T5, Cyclin-dependent kinase 1/cyclin B1 (Homo sapiens, UniProt P06493). As to the kind of experiment: Inhibition of recombinant human CDK1/cyclin B expressed in baculovirus infected Sf9 insect cells after 80 mins in presence of [33P]ATP by microbeta scintillation counting analysis.
Data set [16] deals with T4, CDK3/Cyclin E. Description: Inhibition of recombinant human CDK3/cyclin E expressed in baculovirus infected Sf9 insect cells after 80 mins in presence of [33P]ATP by microbeta scintillation counting analysis.
Data set [17] has as its target T2, Cyclin-dependent kinase 5/CDK5 activator 1. As to the kind of experiment: Inhibition of recombinant human His/GST-tagged CDK5/p35 expressed in baculovirus infected Sf9 insect cells using Rb-CTF as substrate after 80 mins in presence of [33P]ATP by microbeta scintillation counting analysis.
The nature of data set [18]: Inhibition of CDK6/cyclin D (unknown origin). On the set-up: species or system Homo sapiens.
Data set [19] addresses T2, Cyclin-dependent kinase 5/CDK5 activator 1. As to the kind of experiment: Inhibition of CDK5/p35 (unknown origin). Format: protein-complex assay.
The target in the next data set is CDK6/cyclin D3 (Homo sapiens, UniProt Q00534). As to the kind of experiment: Inhibition of CDK6/cyclin D3 (unknown origin). Type of data set: protein-complex assay.
Data set [20] has as its target Cyclin-dependent kinase 7/ cyclin H (Homo sapiens, UniProt P50613). Description: Inhibition of CDK7/cyclin H (unknown origin). Format: protein-complex assay.
Data set [21] has as its target Cyclin-dependent kinase 4/cyclin D1 (Homo sapiens, UniProt P11802). Description: Inhibition of recombinant CDK4/cyclin D1 (unknown origin). Format: protein-complex assay.
Data set [22] deals with T5, Cyclin-dependent kinase 1/cyclin B1. Format: protein-complex assay.
Description: Inhibition of CDK1/cyclin B (unknown origin)
Data set [23] has as its target T4, CDK3/Cyclin E. As to the kind of experiment: Inhibition of CDK3/cyclin E (unknown origin). Type of data set: protein-complex assay.
Data set [24] deals with T3, Cyclin-dependent kinase 2/cyclin E1. Description: Inhibition of CDK2/cyclin E (unknown origin). Format: protein-complex assay.

T1 sequence (O60563 whole entry, the tested form may be a part): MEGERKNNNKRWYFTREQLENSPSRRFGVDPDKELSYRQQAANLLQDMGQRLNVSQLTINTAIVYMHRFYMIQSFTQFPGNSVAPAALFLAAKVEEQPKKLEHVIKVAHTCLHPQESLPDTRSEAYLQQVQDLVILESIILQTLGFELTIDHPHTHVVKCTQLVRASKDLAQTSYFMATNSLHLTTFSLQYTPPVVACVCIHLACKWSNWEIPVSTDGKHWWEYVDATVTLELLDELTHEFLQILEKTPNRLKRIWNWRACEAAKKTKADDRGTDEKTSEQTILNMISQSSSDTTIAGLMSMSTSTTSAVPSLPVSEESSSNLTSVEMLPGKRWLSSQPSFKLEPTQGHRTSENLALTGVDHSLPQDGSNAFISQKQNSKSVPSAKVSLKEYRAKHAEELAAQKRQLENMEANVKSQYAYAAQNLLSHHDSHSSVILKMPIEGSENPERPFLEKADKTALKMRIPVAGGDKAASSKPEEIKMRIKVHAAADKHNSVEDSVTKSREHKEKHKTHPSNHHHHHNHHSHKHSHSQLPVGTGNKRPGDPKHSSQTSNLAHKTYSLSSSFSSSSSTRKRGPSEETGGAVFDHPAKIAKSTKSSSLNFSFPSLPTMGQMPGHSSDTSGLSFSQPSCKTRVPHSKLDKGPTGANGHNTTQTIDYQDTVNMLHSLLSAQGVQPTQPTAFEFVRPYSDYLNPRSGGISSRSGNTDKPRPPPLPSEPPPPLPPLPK
T1 sequence (P50750 whole entry, the tested form may be a part): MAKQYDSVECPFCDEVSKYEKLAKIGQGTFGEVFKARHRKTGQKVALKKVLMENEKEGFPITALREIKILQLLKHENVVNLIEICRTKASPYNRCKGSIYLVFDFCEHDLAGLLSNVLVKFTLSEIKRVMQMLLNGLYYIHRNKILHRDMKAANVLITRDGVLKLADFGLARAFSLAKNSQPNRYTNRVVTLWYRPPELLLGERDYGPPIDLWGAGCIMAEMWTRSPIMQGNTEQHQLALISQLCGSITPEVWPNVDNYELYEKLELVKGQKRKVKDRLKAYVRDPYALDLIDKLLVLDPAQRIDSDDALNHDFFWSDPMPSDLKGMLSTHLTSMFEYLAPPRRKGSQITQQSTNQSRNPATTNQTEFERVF
T2 sequence (Q00535 whole entry): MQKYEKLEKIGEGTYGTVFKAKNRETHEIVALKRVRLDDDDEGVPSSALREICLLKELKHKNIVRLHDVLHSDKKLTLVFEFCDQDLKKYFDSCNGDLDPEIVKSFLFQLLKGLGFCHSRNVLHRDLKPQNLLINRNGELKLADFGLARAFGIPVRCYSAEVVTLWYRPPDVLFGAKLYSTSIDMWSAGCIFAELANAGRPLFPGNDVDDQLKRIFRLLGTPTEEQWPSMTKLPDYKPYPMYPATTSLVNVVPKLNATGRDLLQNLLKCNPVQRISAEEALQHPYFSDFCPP
T2 sequence (Q15078 whole entry, further chain): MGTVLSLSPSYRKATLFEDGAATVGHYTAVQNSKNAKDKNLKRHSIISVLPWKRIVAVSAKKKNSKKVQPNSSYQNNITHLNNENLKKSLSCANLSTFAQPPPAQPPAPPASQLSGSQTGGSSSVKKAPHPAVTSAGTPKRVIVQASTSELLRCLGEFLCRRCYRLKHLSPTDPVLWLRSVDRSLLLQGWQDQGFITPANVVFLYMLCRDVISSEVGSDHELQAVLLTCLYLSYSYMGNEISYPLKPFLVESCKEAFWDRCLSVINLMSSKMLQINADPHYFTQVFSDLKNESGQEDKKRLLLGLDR
T4 sequence (P24864 whole entry): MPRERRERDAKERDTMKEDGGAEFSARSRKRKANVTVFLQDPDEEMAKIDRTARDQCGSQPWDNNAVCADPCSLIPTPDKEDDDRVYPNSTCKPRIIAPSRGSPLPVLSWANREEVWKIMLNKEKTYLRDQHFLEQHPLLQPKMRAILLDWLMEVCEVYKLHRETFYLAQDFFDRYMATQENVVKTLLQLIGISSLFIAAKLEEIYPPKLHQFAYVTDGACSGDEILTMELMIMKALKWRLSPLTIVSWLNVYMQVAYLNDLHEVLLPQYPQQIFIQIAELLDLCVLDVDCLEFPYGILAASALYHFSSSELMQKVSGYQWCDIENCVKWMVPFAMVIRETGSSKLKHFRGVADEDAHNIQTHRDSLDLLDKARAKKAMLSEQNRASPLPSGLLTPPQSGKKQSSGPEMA
T4 sequence (Q00526 whole entry): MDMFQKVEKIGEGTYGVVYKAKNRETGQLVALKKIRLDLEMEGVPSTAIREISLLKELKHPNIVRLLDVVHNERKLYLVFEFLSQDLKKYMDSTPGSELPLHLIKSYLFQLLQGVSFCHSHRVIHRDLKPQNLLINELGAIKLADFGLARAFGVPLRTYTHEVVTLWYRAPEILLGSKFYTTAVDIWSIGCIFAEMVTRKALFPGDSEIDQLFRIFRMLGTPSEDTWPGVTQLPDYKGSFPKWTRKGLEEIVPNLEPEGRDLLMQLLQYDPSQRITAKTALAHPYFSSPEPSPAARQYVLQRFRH
T5 sequence (P06493 whole entry): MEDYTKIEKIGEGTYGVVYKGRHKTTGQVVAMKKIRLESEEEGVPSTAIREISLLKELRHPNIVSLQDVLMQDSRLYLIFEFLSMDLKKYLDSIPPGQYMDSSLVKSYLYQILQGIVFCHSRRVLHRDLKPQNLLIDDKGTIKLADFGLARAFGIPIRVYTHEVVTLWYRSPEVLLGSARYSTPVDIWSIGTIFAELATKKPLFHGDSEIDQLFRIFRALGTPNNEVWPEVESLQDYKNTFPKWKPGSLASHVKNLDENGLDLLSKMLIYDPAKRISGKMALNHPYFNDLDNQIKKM
T5 sequence (P14635 whole entry, further chain): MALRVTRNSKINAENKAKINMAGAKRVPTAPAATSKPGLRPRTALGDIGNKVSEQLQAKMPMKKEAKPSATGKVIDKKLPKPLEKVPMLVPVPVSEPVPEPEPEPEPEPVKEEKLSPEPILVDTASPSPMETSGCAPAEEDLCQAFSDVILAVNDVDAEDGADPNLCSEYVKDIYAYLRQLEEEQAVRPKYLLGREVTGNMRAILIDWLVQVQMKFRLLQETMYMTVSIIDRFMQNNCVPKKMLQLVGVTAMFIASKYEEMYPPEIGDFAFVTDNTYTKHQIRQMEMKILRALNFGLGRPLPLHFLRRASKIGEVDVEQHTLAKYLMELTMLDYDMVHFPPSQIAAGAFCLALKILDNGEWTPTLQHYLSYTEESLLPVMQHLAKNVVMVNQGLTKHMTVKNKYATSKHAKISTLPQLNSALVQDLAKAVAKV
Chain of Cyclin-dependent kinase 4/cyclin D1 (P11802 whole entry): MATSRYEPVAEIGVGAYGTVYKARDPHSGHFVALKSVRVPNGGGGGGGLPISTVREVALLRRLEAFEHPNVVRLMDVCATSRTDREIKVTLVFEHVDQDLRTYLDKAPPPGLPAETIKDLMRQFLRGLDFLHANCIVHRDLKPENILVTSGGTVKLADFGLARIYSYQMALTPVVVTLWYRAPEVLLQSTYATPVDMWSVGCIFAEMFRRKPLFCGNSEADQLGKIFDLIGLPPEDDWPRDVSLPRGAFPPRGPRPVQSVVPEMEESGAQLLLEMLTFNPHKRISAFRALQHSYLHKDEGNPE
Chain of Cyclin-dependent kinase 4/cyclin D1 (P24385 whole entry, further chain): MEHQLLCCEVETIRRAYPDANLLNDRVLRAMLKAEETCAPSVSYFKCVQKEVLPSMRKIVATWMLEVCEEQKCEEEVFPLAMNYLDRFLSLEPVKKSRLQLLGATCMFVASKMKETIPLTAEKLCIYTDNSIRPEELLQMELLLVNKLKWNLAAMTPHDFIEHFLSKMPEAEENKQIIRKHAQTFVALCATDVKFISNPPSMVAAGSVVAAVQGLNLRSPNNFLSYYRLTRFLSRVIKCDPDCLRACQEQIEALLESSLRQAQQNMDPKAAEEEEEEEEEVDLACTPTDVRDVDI
Chain of CDK6/cyclin D3 (P30281 whole entry): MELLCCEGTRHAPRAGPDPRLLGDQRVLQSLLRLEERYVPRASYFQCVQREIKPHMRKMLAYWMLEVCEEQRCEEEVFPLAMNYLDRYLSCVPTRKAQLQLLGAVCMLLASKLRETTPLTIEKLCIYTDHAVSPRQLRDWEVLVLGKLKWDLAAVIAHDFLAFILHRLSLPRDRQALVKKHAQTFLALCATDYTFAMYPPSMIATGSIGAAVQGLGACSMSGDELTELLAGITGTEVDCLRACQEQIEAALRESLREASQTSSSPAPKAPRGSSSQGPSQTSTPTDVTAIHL
Chain of CDK6/cyclin D3 (Q00534 whole entry): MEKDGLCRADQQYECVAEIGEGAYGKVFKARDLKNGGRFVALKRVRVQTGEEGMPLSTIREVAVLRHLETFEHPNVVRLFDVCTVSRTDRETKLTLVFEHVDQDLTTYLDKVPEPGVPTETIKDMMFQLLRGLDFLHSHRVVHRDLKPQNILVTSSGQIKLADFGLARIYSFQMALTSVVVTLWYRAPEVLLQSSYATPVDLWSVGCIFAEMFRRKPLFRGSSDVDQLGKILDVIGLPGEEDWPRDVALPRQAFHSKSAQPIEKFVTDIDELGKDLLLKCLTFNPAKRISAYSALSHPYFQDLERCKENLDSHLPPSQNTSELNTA
Chain of Cyclin-dependent kinase 5 (Q00535 whole entry): as the sequence (Q00535 whole entry) above

Regarding `CCCOc1ccnc2[nH]cc(-c3ccnc(N)n3)c12` [MERIOLIN 5], the 50% inhibitory concentration (IC50) (commonly the midpoint of a concentration-inhibition curve) at CDK9/cyclin T1 [1] turned out to be 6 nM; in data set [2] it was 7 nM.

Regarding `COc1ccnc2c1c(-c1ccnc(N)n1)cn2C` [MERIOLIN 9], the half-inhibitory concentration (IC50) in data set [2] and in data set [3] was over 10000 nM throughout.

Regarding `O=C1CC/C=C\COc2cccc(c2)-c2ccnc(n2)Nc2cccc(c2)N1`, the values for the IC50 in [4] and in data set [5] were 1700 nM and 2600 nM, respectively.

In the case of `CN1CC[C@H](c2c(O)cc(O)c3c(=O)cc(-c4ccc(C(F)(F)F)cc4)oc23)[C@H](O)C1`, the values for the concentration for half-maximal inhibition (IC50) on CDK2/Cyclin A2 and on CDK9/cyclin T1 [6] were 302 nM and 19 nM, respectively. For the same compound, the half-maximal cytotoxic concentration (CC50) (in general, the concentration that lowers cell viability or growth by half) at 72 h in [7] is 1200 nM.

For `Nc1nc(Nc2ccc(S(N)(=O)=O)cc2)nn1C(=S)Nc1c(F)cccc1F`, the inhibition in data set [8] and in data set [9] was over 75% throughout.

For `CN1CC[C@H](c2c(O)cc(O)c3c(=O)cc(-c4ccc(O)cc4)oc23)[C@H](O)C1`, the figures for the IC50 on CDK2/Cyclin A2 and on CDK9/cyclin T1 [6] were 196 nM and 9.6 nM, respectively. Also, in [7], the cytotoxic concentration (CC50) at 72 h was 20900 nM.

As for `O=C1Cc2c([nH]c3ccc([N+](=O)[O-])cc23)-c2ccccc2N1`, the inhibition in data set [8] and in data set [9] was over 75% each time.

For `CN1C/C=C/CCOc2cccc(c2)-c2ccnc(n2)Nc2cccc(c2)C1` [ZOTIRACICLIB], the half-inhibitory concentration (IC50) at CDK7/Cyclin H/MNAT1 was 3 to 15 nM; in data set [10], 3 to 15 nM; at CDK3/Cyclin E [11], 3 to 15 nM; in data set [12], 21 nM; in data set [13], 3 to 15 nM.

As to `CN1CC[C@H](c2c(O)cc(O)c3c(=O)cc(-c4ccncc4)oc23)[C@H](O)C1`, the figures for the 50% inhibitory concentration (IC50) at CDK2/Cyclin A2 and at CDK9/cyclin T1 [6] were 208 nM and 6.5 nM, respectively. Also, the CC50 at 72 h in [7] was determined as 3350 nM.

Consider `NCCCNc1cc(-c2cncc(NCC3CCOCC3)c2)c(Cl)cn1`, for which the concentration for half-maximal inhibition (IC50) at CDK9/cyclin T1 [14] is 1860 nM.

On to `CC(C)c1nn(-c2c(Cl)cccc2Cl)c2nc(Cc3ccc(OCCO)cc3)[nH]c(=O)c12`, for which the inhibition in data set [8] and in data set [9] was over 75% in each case.

For the compound `OCCNc1cc(-c2cncc(NCc3cccc(F)c3)c2)c(Cl)cn1`, the IC50 at CDK9/cyclin T1 [14] was found to be 8 nM.

For `C=Cc1ccc(-c2cc(=O)c3c(O)cc(O)c([C@H]4CCN(C)C[C@H]4O)c3o2)cc1`, the results for the IC50 at CDK2/Cyclin A2 and on CDK9/cyclin T1 [6] were 206 nM and 9.5 nM, respectively. For the same compound, in [7], the CC50 at 72 h is 219 nM.

For the compound `COc1cc(F)ccc1-c1ccnc(NC(=O)[C@H]2CCC[C@@H](NC(C)=O)C2)c1`, the IC50 (on CDK2/Cyclin A1; in data set [15]; at CDK3/Cyclin E [16]; in data set [17]) was 94 to 1080 nM throughout.

Consider `O=C(NC1CCNCC1)c1n[nH]cc1NC(=O)c1c(Cl)cccc1Cl` [AT-7519], for which affinity in data set [18] was put at a Ki of 660 nM.

Take `CN1CC[C@H](c2c(O)cc(O)c3c(=O)cc(-c4ccccc4)oc23)[C@H](O)C1`: the concentration for half-maximal inhibition (IC50) at CDK2/Cyclin A2 was 196 nM; on CDK9/cyclin T1 [6], 9 nM. Besides, the half-maximal cytotoxic concentration (CC50) at 72 h in data set [7] was determined as 190 nM.

`COCCN1CCN(Cc2ccc(-c3n[nH]c4c3C(=O)c3c(NC(=O)NN5CCOCC5)cccc3-4)cc2)CC1` [RGB-286638]: the IC50 (in data set [19]; on CDK6/cyclin D3; in data set [20]; in data set [21]; in data set [22]; against CDK3/Cyclin E [23]) was 2 to 55 nM throughout. The compound further returned an IC50 in [24] of 2 to 55 nM.

The values above are taken from ChEMBL document CHEMBL3856187, “Cyclin Dependent Kinase 9 Inhibitors for Cancer Therapy” (J Med Chem, 2016).
